Data on 15 molecules can be found in US11912650B2, “Bakuchiol derivatives, pharmaceutically acceptable salts thereof, and preparation method and use of the same” (priority 2020, dated 2024).

For one test, the system named is MRSA NCTC10442. Kind of test: Antibacterial activity assay (broth dilution MIC). It is filed as cell-based, methicillin-resistant Staphylococcus aureus. The settings on record: Staphylococcus aureus, 37° C., 24 h, compounds 38, 44-45, 58-61, 63-64 with 0.05% Tween 80. As for the experimental part: (§1) Antibacterial activity assay. The antibacterial activities of all the compounds were determined according to a broth dilution method specified in Clinical and Laboratory Standards Institute (CLSI) guidelines. Bacterial cells were inoculated on a Mueller-Hinton agar (MHA) plate for overnight culture, and the concentration of the bacterial cells was adjusted to about 1×10^6 colony-forming units (CFU)/mL with phosphate buffered saline (PBS). First, a 1000 μg/mL stock solution (a final concentration of dimethyl sulfoxide (DMSO) was ≤2%) was prepared by dissolving a sample in DMSO/H2O. Then, the stock solution was diluted with Mueller-Hinton Broth (MHB) to an initial concentration of 100 μg/mL, and the sample solution (100 μL) was subjected to two-fold gradient dilution with MHB in a 96-well plate, to obtain 100 μg/mL to 0.78 μg/mL serial dilutions. Then, a bacterial suspension (100 μL) was added to each well of the 96-well plate and mixed with the test sample solution (100 μL). Among them, test systems for compounds 38, 44-45, 58-61 and 63-64 contained 0.05% of Tween 80. Finally, the 96-well plate was incubated at 37° C. for 24 hours. Absorbances at 600 nm at 0 and 24 h were measured. An minimum inhibitory concentration (MIC) value was defined as the lowest concentration where no visible bacterial growth occurred. All experiments were carried out in at least two duplicates, and biological repeatability could be achieved.

A further test deals with MRSA N315. Briefly: Antibacterial activity assay (broth dilution MIC). It is filed as cell-based, methicillin-resistant Staphylococcus aureus. The settings on record: Staphylococcus aureus, 37° C., 24 h, compounds 38, 44-45, 58-61, 63-64 with 0.05% Tween 80. As for the experimental part: as §1
(In general: Dilution methods test growth across graded concentrations, often in twofold steps.)

A further test has as its system E. coli ATCC25922. Briefly: Antibacterial activity assay (broth dilution MIC). The class given is cell-based. The settings on record: Escherichia coli, 37° C., 24 h, compounds 38, 44-45, 58-61, 63-64 with 0.05% Tween 80. As for the experimental part:
as §1

In another test the test system is S. aureus ATCC29213. Briefly: Antibacterial activity assay (broth dilution MIC). It is filed as cell-based. The settings on record: Staphylococcus aureus, 37° C., 24 h, compounds 38, 44-45, 58-61, 63-64 with 0.05% Tween 80. As to the method:
as §1

A further test deals with Gram-positive bacteria. Briefly: Antibacterial activity against Gram-positive bacteria (MIC summary). The settings on record: 24 h, read-out: minimum inhibitory concentration (MIC) against Gram-positive bacteria. The class given is cell-based. As to the method: as §1
Another test has as its system Gram-negative bacteria. Briefly: Antibacterial activity against Gram-negative bacteria (MIC summary). The class given is cell-based. The settings on record: 24 h; summary of tables 1 and 2. As for the experimental part: as §1

Each structure is given as a SMILES string. In brackets after ≈: the same amount, converted by molar mass. Like-named read-outs stand apart in the source and are kept apart here.

Take `C=C[C@@](C)(/C=C/c1ccc(OCCCCN(Cc2ccccn2)Cc2ccccn2)cc1)CCC=C(C)C` [Compound 22]: the MIC was 1.56 µg/mL (≈ 3.06 µM) in the test on MRSA NCTC10442, 1.56 µg/mL (≈ 3.06 µM) against MRSA N315, over 100 µg/mL against E. coli ATCC25922 and 3.12 µg/mL (≈ 6.13 µM) in the test with S. aureus ATCC29213.

Consider `C=C[C@@](C)(/C=C/c1ccc(OCCCCN2CCN(CCCN(C)C)CC2)cc1)CCC=C(C)C` [Compound 23], for which the MIC is 3.12 µg/mL (≈ 6.49 µM) against MRSA NCTC10442; 0.78 µg/mL (≈ 1.62 µM) in the test with MRSA N315; 0.39 to 3.12 µg/mL (≈ 0.81 to 6.49 µM) in the test on Gram-positive bacteria (summary of tables 1 and 2); 1.56 to 3.12 µg/mL (≈ 3.24 to 6.49 µM) in the test with Gram-negative bacteria; 3.12 µg/mL (≈ 6.49 µM) in the test with E. coli ATCC25922; 1.56 µg/mL (≈ 3.24 µM) against S. aureus ATCC29213.

In the case of `C=C[C@@](C)(/C=C/c1ccc(OCCCCNCCSC)cc1)CCC=C(C)C` [Compound 25], the MIC in the test on MRSA NCTC10442 was 1.56 µg/mL (≈ 3.88 µM); with MRSA N315, 0.78 µg/mL (≈ 1.94 µM); in the test with Gram-positive bacteria (summary of tables 1 and 2) it was 0.39 to 3.12 µg/mL (≈ 0.971 to 7.78 µM); against E. coli ATCC25922 it was 50 µg/mL (≈ 124 µM); against S. aureus ATCC29213 it was 0.78 µg/mL (≈ 1.94 µM).

As to `C=C[C@@](C)(/C=C/c1ccc(OCCCCN2CCNCCNCCNCCNCC2)cc1)CCC=C(C)C` [Compound 31], the MIC was 1.56 µg/mL (≈ 2.97 µM) against MRSA NCTC10442; 0.78 µg/mL (≈ 1.48 µM) in the test on MRSA N315; 0.39 to 3.12 µg/mL (≈ 0.742 to 5.94 µM) in the test with Gram-positive bacteria (summary of tables 1 and 2); 6.25 µg/mL (≈ 11.9 µM) against E. coli ATCC25922; 1.56 µg/mL (≈ 2.97 µM) with S. aureus ATCC29213.

In the case of `C=C[C@@](C)(/C=C/c1ccc(OCCCCNC(=N)N)cc1)CCC=C(C)C` [Compound 35], the MIC against MRSA NCTC10442 is 3.12 µg/mL (≈ 8.46 µM); against MRSA N315, 1.56 µg/mL (≈ 4.22 µM); in the test on Gram-positive bacteria (summary of tables 1 and 2), 0.39 to 3.12 µg/mL (≈ 1.06 to 8.46 µM); in the test with E. coli ATCC25922 it was 25 µg/mL (≈ 67.6 µM); with S. aureus ATCC29213 it was 3.12 µg/mL (≈ 8.46 µM).

With `C=C[C@](C)(/C=C/c1ccc(OCC(=O)N[C@@H](CCCNC(=N)N)C(=O)OC)cc1)CCC=C(C)C` [Compound 38], the MIC against MRSA NCTC10442 was 0.78 µg/mL (≈ 1.61 µM); with MRSA N315, 1.56 µg/mL (≈ 3.22 µM); with Gram-positive bacteria, 0.39 to 3.12 µg/mL (≈ 0.805 to 6.45 µM); with E. coli ATCC25922, 6.25 µg/mL (≈ 12.9 µM); in the test on S. aureus ATCC29213 it was 0.78 µg/mL (≈ 1.61 µM).

For the molecule `C=C[C@](C)(/C=C/c1ccc(OCC(=O)N[C@H](CCCNC(=N)N)C(N)=O)cc1)CCC=C(C)C` [Compound 39], the MIC against MRSA NCTC10442 was 3.12 µg/mL (≈ 6.65 µM); in the test with MRSA N315, 3.12 µg/mL (≈ 6.65 µM); in the test on Gram-positive bacteria, 0.39 to 3.12 µg/mL (≈ 0.83 to 6.65 µM); against E. coli ATCC25922, 12.5 µg/mL (≈ 26.6 µM); against S. aureus ATCC29213, 3.12 µg/mL (≈ 6.65 µM).

On to `C=C[C@](C)(/C=C/c1ccc(OCC(=O)N[C@@H](Cc2c[nH]cn2)C(=O)OC)cc1)CCC=C(C)C` [Compound 40], for which the MIC with MRSA NCTC10442 was 6.25 µg/mL (≈ 13.4 µM); against MRSA N315 it was 6.25 µg/mL (≈ 13.4 µM); in the test with E. coli ATCC25922 it was over 100 µg/mL; with S. aureus ATCC29213, 6.25 µg/mL (≈ 13.4 µM).

In the case of `C=C[C@](C)(/C=C/c1ccc(OCC(=O)N[C@@H](CCCNC(=N)N)C(=O)N[C@@H](CCCNC(=N)N)C(=O)N[C@@H](CCCNC(=N)N)C(=O)OC)cc1)CCC=C(C)C` [Compound 45], the MIC is 1.56 µg/mL (≈ 1.96 µM) against MRSA NCTC10442; 0.78 µg/mL (≈ 0.979 µM) with MRSA N315; 0.39 to 3.12 µg/mL (≈ 0.489 to 3.92 µM) with Gram-positive bacteria; 6.25 µg/mL (≈ 7.84 µM) in the test on E. coli ATCC25922; 0.39 µg/mL (≈ 0.489 µM) against S. aureus ATCC29213.

Consider `C=C[C@@](C)(/C=C/c1ccc(OCC(=O)N[C@@H](CCCCN)C(=O)OC)cc1)CCC=C(C)C` [Compound 47], for which the MIC worked out at 6.25 µg/mL (≈ 13.7 µM) with MRSA NCTC10442, 6.25 µg/mL (≈ 13.7 µM) with MRSA N315, 12.5 µg/mL (≈ 27.4 µM) with E. coli ATCC25922 and 6.25 µg/mL (≈ 13.7 µM) against S. aureus ATCC29213.

Regarding `C=C[C@](C)(/C=C/c1ccc(OCC(=O)N[C@@H](CCCNC(=N)N)C(=O)N[C@@H](CCCNC(=N)N)C(N)=O)cc1)CCC=C(C)C` [Compound 49], the MIC is 1.56 µg/mL (≈ 2.49 µM) in the test with MRSA NCTC10442; 3.12 µg/mL (≈ 4.99 µM) in the test with MRSA N315; 0.39 to 3.12 µg/mL (≈ 0.623 to 4.99 µM) in the test with Gram-positive bacteria; 12.5 µg/mL (≈ 20 µM) against E. coli ATCC25922; 1.56 µg/mL (≈ 2.49 µM) against S. aureus ATCC29213.

On to `C=C[C@@](C)(/C=C\c1ccc(OCC(=O)N[C@@H](CCCNC(=N)N)C(=O)N[C@@H](Cc2c[nH]cn2)C(=O)OC)cc1)CCC=C(C)C` [Compound 50], for which the MIC came out at 6.25 µg/mL (≈ 10.1 µM) in the test on MRSA NCTC10442, 6.25 µg/mL (≈ 10.1 µM) in the test on MRSA N315, 12.5 µg/mL (≈ 20.1 µM) against E. coli ATCC25922 and 6.25 µg/mL (≈ 10.1 µM) against S. aureus ATCC29213.

Regarding `C=C[C@](C)(/C=C/c1ccc(OCC(=O)N[C@@H](CCCNC(=N)N)C(=O)NCCCN(CC)CC)cc1)CCC=C(C)C` [Compound 52], the MIC in the test on MRSA NCTC10442 is 0.78 µg/mL (≈ 1.34 µM); against MRSA N315, 0.78 µg/mL (≈ 1.34 µM); in the test with Gram-positive bacteria (summary of tables 1 and 2) it was 0.39 to 3.12 µg/mL (≈ 0.669 to 5.36 µM); with E. coli ATCC25922 it was 25 µg/mL (≈ 42.9 µM); against S. aureus ATCC29213, 1.56 µg/mL (≈ 2.68 µM).

`C=C[C@](C)(/C=C/c1ccc(OCC(=O)N[C@H](CCCNC(=N)N)C(=O)N2CCN(c3ccc(N4CC(CNC(C)=O)OC4=O)cc3F)CC2)cc1)CCC=C(C)C` (some centres unmarked) [Compound 53]: the MIC with MRSA NCTC10442 was 0.78 µg/mL (≈ 0.989 µM); in the test with MRSA N315 it was 0.78 µg/mL (≈ 0.989 µM); with Gram-positive bacteria (summary of tables 1 and 2) it was 0.39 to 3.12 µg/mL (≈ 0.494 to 3.96 µM); in the test on E. coli ATCC25922, 6.25 µg/mL (≈ 7.92 µM); in the test on S. aureus ATCC29213, 0.78 µg/mL (≈ 0.989 µM).

Consider `C=C[C@](C)(/C=C/c1ccc(OCC(=O)N[C@@H](Cc2c[nH]cn2)C(=O)N[C@@H](Cc2c[nH]cn2)C(=O)OC)cc1)CCC=C(C)C` [Compound 55], for which the MIC against MRSA NCTC10442 was 12.5 µg/mL (≈ 20.7 µM); with MRSA N315, 12.5 µg/mL (≈ 20.7 µM); in the test with E. coli ATCC25922 it was over 100 µg/mL; in the test on S. aureus ATCC29213, 12.5 µg/mL (≈ 20.7 µM).
